# System: DSS-induced IBD
# Test: DSS-induced inflammatory bowel disease (acute colitis) in mice
# Type: in vivo, C57BL/6 female mice
# Experimental: Glatiramer acetate (GA) and GA Depot administration: […] GA Depot was suspended in sterile water for injection (WFI) (B Braun, Melsumgen, Germany) and injected intramuscularly (IM) at 10 mg dose (doses of GA Depot are given according to amount of active ingredient, i.e. GA Depot 10 mg contains 10 mg GA) divided to two 5 mg doses on days 0 and 1 due to technical reasons (volume limitation). Animals: All animal studies were approved by local ethics committees. C57BL/6 female mice, 7-9 weeks old were randomized into control or treatment groups with similar mean weight Animals were given food and water ad libitum throughout the experiment. Cell culture: SVF was plated at a density of 2×10^6 cells per 75 cm^2. Cells were grown to 80% confluency, trypsinized and sub-cultured up to passage 3-4. Cells were then collected and analyzed by FACS for the markers: […] The cells were stored frozen in liquid nitrogen until use. For use, the cells were thawed and plated at a concentration of 50,000 cells/cm^2 and incubated overnight. Prior to cells intraperitoneal (IP) injection the cells were trypsinized, counted and prepared for injection at a concentration of 1×10^6 cell/100 ul PBS and kept in ice until use for a period no longer than 30 min. Inflammatory bowel disease (IBD) induction: A widely used IBD model in mice is the dextran sulfate sodium (DSS)-induced colitis. DSS administration in the mice drinking water leads to many of the events presumed to initiate and sustain human IBD (Boismenu and Chen (2000) J Leukoc Biol, 67:267-278). […] In brief, body weight, rectal bleeding (observation of bleeding signs on the anus or gross bleeding), stool consistency and survival were monitored daily. […] Fourteen (14) days following disease induction, mice were sacrificed and the large intestine was collected and evaluated for colon length and microscopic colonic damage. […] Statistical analysis: Each data set was analyzed using single-factor analysis of variance (ANOVA) followed by two-tailed, two-sample students' T test assuming unequal variances, n=10/group, +/-standard error.
substance,measurement,setting,value
"L-glutamic acid polymer with L-alanine, L-lysine and L-tyrosine, acetate (salt) [Copaxone®]",animals showing bleeding (Hemoccult test),day 5,50%
same,animals showing bleeding (Hemoccult test),day 10,20%
same,effect on IBD manifestations (overall conclusion),"mouse, in vivo",almost no effect
